Tested on: SCA2.1 (DNA, aptamer) CTTACGACCTTAAGTGGGGTTCGGGTGGAGTTTATGGGGTCGTAAG
Assay: absorbance titration at 775 nm
Details: 20 mM NaCl, 0.5 mM MgCl2; 10 mM Tris-HCl pH 7.4, 0.01% Tween 20, 1% DMSO, room temperature; 2 µM Cy7

Row | KD | Structure (SMILES)
1 | 1600 nM | CCN1C(=CC=CC=CC=Cc2sc3ccccc3[n+]2CC)Sc2ccccc21

Tested on: SCA2.1 (DNA, aptamer) CTTACGACCTTAAGTGGGGTTCGGGTGGAGTTTATGGGGTCGTAAG
Assay: ITC
Details: 20 mM NaCl, 0.5 mM MgCl2; 10 mM Tris-HCl pH 7.4, 23 °C; pure enantiomer, one-site model

Row | KD | Structure (SMILES)
2 | 3610 ± 120 nM | CCCC(C(=O)c1ccc2c(c1)OCO2)N1CCCC1 (stereo not drawn)
3 | 46.5 ± 7.5 nM | CCC[C@H](C(=O)c1ccc2c(c1)OCO2)N1CCCC1

Same assay, conditions: 20 mM NaCl, 0.5 mM MgCl2; 10 mM Tris-HCl pH 7.4, 23 °C; racemate, modified two-site model; site 1 of 2 (one enantiomer)

Row | KD1 | Structure (SMILES)
4 | 0.16 ± 0.05 µM | CCC(NC)C(=O)c1ccc2c(c1)OCO2 (racemic)
5 | 0.0175 ± 0.0164 µM | CCCC(C(=O)c1ccc2c(c1)OCO2)N1CCCC1 (racemic)
6 | 0.09 ± 0.02 µM | CCCC(C(=O)c1ccccc1)N1CCCC1 (racemic)
7 | 0.10 ± 0.03 µM | CCNC(C)C(=O)c1ccc2c(c1)OCO2 (racemic)

Tested on: SCA2.1 (DNA, aptamer) CTTACGACCTTAAGTGGGGTTCGGGTGGAGTTTATGGGGTCGTAAG
Assay: Cy7 displacement, absorbance A670/A775
Details: Cy7 (2 µM) displaced from 3 µM SCA2.1; 50 µM compound

Row | binding | Structure (SMILES)
8 | yes | CCCC(C(=O)c1ccc2ccccc2c1)N1CCCC1 (stereo not drawn)
9 | yes | CCCC(NC)C(=O)c1ccc2c(c1)OCO2 (stereo not drawn)
10 | yes | CNC(C)C(=O)c1ccc(C)cc1 (stereo not drawn)
11 | yes | CNC(C)C(=O)c1ccc(F)cc1 (stereo not drawn)
12 | yes | CNC(C)C(=O)c1ccc2c(c1)OCO2 (stereo not drawn)
13 | yes | CNC(C)C(=O)c1cccc(F)c1 (stereo not drawn)
14 | yes | CNC(C)C(=O)c1ccccc1 (stereo not drawn)
15 | yes | C[C@H](N)C(=O)c1ccccc1

Same assay, conditions: Cy7 (2 µM) displaced from 3 µM SCA2.1; highest concentration tested 50 µM

Row | Structure (SMILES) | binding
16 | CCN(CC)CC(=O)Nc1c(C)cccc1C | no
17 | CCOC(=O)c1ccc(N)cc1 | no
18 | Cn1c(=O)c2c(ncn2C)n(C)c1=O | no
19 | OC[C@H]1O[C@@](CO)(O[C@H]2O[C@H](CO)[C@@H](O)[C@H](O)[C@H]2O)[C@@H](O)[C@@H]1O | no

The next lines start with the values.

Row | binding | Structure (SMILES)
20 | no | CC(=O)Nc1ccc(O)cc1
21 | no | CN[C@@H](C)[C@@H](O)c1ccccc1

— article PMC6614805 (2019)
